Drawing on ChEMBL document CHEMBL5344418, “Recent developments in antimalarial activities of 4-aminoquinoline derivatives” (Eur J Med Chem, 2023), this text covers IC50 for 50 compounds.

Where only a bound is given, the exact number is not on record here.

The nature of data set [1]: Cytotoxicity against African green monkey Vero cells assessed as reduction in cell viability incubated for 24 hrs by fluorescence based analysis. The data set is classed as toxicity. The conditions noted are these: African green monkey (Chlorocebus sabaeus).
Data set [2] relates to Hemozoin. Nature of the data set: Inhibition of Beta-hematin formation in Plasmodium falciparum K1 by spectrophotometric analysis.
Data set [3] concerns Hemozoin. Nature of the data set: Inhibition of Beta-hematin formation in Plasmodium falciparum 3D7 by spectrophotometric analysis.
Data set [4] concerns Plasmodium falciparum. Nature of the data set: Antimalarial activity against chloroquine-sensitive Plasmodium falciparum 3D7 assessed as reduction in parasite growth incubated for 72 hrs by SYBR Green staining based fluorescence analysis. The conditions noted are these: 3D7, 72 h. The data set is classed as functional, organism-based.
The nature of data set [5]: Cytotoxicity against Chinese hamster CHO cells assessed as reduction in cell viability by MTT assay. Conditions: Chinese hamster (Cricetulus griseus). The format is toxicity, cell-based. On the technique in general: Tetrazolium assays rely on reduction of a dye to a coloured formazan, in cell work by metabolically active cells.
The subject of data set [6] is Plasmodium falciparum. Kind of data set: Antiplasmodial activity against chloroquine-sensitive Plasmodium falciparum NF54 by lactate dehydrogenase assay. The data set is classed as functional, organism-based.

Take `O=C1c2ccc(N3CCN(CCO)CC3)cc2C(=O)N1CCCCNc1ccnc2cc(Cl)ccc12`: in data set [1], the 50% inhibitory concentration (IC50) (commonly the concentration that inhibits the measured activity by half) at 24 h stood at 24.6 µM. On to `Clc1ccc2c(NCCn3cncc3C3CCCC3)ccnc2c1`, for which the IC50 in data set [2] is 0.34 µM; in data set [3], 0.079 µM. Regarding `O=C1c2ccc(N3CCOCC3)cc2C(=O)N1CCCCCCNc1ccnc2cc(Cl)ccc12`, the IC50 at 24 h in data set [1] was found to be 25.4 µM. As for `CN(c1ccnc2cc(C(F)(F)F)ccc12)C(Cc1ccccc1)CN1CCCCC1` (stereo unspecified), in data set [4], the IC50 worked out at 1.37 µM.

`O=C1c2ccc(N3CCOCC3)cc2C(=O)N1CCCCNc1ccnc2cc(Cl)ccc12`: in data set [1], the IC50 at 24 h stood at 26.9 µM. In the case of `O=C(/C=C/c1ccccc1F)c1ccc(S(=O)(=O)NCCCNc2cncc3cc(Cl)ccc23)cc1`, the results for the IC50 in data set [5] and in data set [6] were 45.5 µM and 0.86 µM, respectively. For `COc1ccc(/C=C/C(=O)c2ccc(S(=O)(=O)NCCNc3cncc4cc(Cl)ccc34)cc2)cc1OC` the same measures were 45.1 µM and 0.33 µM. For `Cc1ccc(/C=C/C(=O)c2ccc(S(=O)(=O)NCCCNc3cncc4cc(Cl)ccc34)cc2)cc1` the same measures were 25.1 µM and 0.37 µM. The like results for `O=C(/C=C/c1c(F)cccc1F)c1ccc(S(=O)(=O)NCCCNc2cncc3cc(Cl)ccc23)cc1` were, in that order, 27.6 µM and 0.54 µM. On to `Cc1ccc(/C=C/C(=O)c2ccc(S(=O)(=O)NCCNc3cncc4cc(Cl)ccc34)cc2)cc1`, for which the IC50 worked out at 24.9 µM in data set [5] and 0.39 µM in data set [6]. The like results for `COc1ccc(/C=C/C(=O)c2ccc(S(=O)(=O)NCCNc3cncc4cc(Cl)ccc34)cc2)cc1` were, in that order, 17.5 µM and 0.49 µM. As for `O=C(/C=C/c1ccccc1Cl)c1ccc(S(=O)(=O)NCCNc2cncc3cc(Cl)ccc23)cc1`, the half-inhibitory concentration (IC50) in data set [5] was found to be 35.4 µM; in data set [6], 0.37 µM. Consider `O=C1c2ccc(N3CCN(CCO)CC3)cc2C(=O)N1CCCNc1ccnc2cc(Cl)ccc12`, for which the IC50 at 24 h in data set [1] stood at 25.3 µM. On to `Fc1ccc(-c2cncn2CCNc2ccnc3cc(Cl)ccc23)cc1`, for which the IC50 in data set [2] came to 3.04 µM; in data set [3] it was 5 µM. In the case of `O=C(/C=C/c1ccc(Cl)cc1)c1ccc(S(=O)(=O)NCCCNc2cncc3cc(Cl)ccc23)cc1`, the concentration for half-maximal inhibition (IC50) came out at 41.2 µM in data set [5] and 0.1 µM in data set [6]. As for `O=C(/C=C/c1ccc(F)cc1F)c1ccc(S(=O)(=O)NCCCNc2cncc3cc(Cl)ccc23)cc1`, the half-inhibitory concentration (IC50) in data set [5] turned out to be 22.4 µM; in data set [6], 0.5 µM. On to `Clc1ccc2c(NCCn3cncc3-c3ccco3)ccnc2c1`, for which the half-inhibitory concentration (IC50) is 0.97 µM in data set [2] and 0.29 µM in data set [3]. The like results for `COc1ccc(-c2cncn2CCNc2ccnc3cc(Cl)ccc23)cc1` were, in that order, 1.78 µM and 5 µM.

For `O=C(/C=C/c1ccc(OC(F)(F)F)cc1)c1ccc(S(=O)(=O)NCCCNc2cncc3cc(Cl)ccc23)cc1`, the concentration for half-maximal inhibition (IC50) worked out at 44 µM in data set [5] and 0.51 µM in data set [6]. As to `Cc1ccsc1-c1cncn1CCNc1ccnc2cc(Cl)ccc12`, the half-maximal inhibitory concentration (IC50) in data set [2] was found to be 0.46 µM; in data set [3], 5 µM. `O=C1c2cccc(N3CCOCC3)c2C(=O)N1CCCCNc1ccnc2cc(Cl)ccc12`: in data set [1], the IC50 at 24 h is 108 µM. Turning to `Clc1ccc2c(NCCn3cncc3-c3ccc[nH]3)ccnc2c1`, the IC50 in data set [2] is 1.15 µM; in data set [3], 5 µM.

As to `COc1ccc(/C=C/C(=O)c2ccc(S(=O)(=O)NCCCNc3cncc4cc(Cl)ccc34)cc2)c(OC)c1OC`, the IC50 in data set [5] worked out at 22.6 µM; in data set [6], 0.58 µM. Take `CCN(CC)CC(Cc1ccccc1)N(C)c1ccnc2cc(C(F)(F)F)ccc12` (stereo unspecified): the IC50 in data set [4] turned out to be 1.75 µM. As for `O=C1c2cccc(N3CCCCC3)c2C(=O)N1CCCCNc1ccnc2cc(Cl)ccc12`, the concentration for half-maximal inhibition (IC50) at 24 h in data set [1] came to 54.1 µM. On the same count and under the same terms, with `O=C1c2ccc(N3CCN(CCO)CC3)cc2C(=O)N1CCCCCCNc1ccnc2cc(Cl)ccc12` the figure was 23.3 µM.

Take `Clc1ccc2c(NCCn3cncc3-c3c[nH]c4ccccc34)ccnc2c1`: the concentration for half-maximal inhibition (IC50) in data set [2] amounted to 1.7 µM; in data set [3] it was 5 µM. `O=C1c2ccc(N3CCN(CCO)CC3)cc2C(=O)N1CCNc1ccnc2cc(Cl)ccc12`: the half-maximal inhibitory concentration (IC50) at 24 h in data set [1] was found to be 26 µM. Take `Clc1ccc2c(NCCn3cncc3-c3cccc(Oc4ccccc4)c3)ccnc2c1`: the half-inhibitory concentration (IC50) was 2.62 µM in data set [2] and 5 µM in data set [3]. In the case of `Clc1ccc2c(NCCn3cncc3-c3ccc4c(c3)OCCO4)ccnc2c1`, the values for the half-maximal inhibitory concentration (IC50) in data set [2] and in data set [3] were 2.4 µM and 0.52 µM, respectively.

On to `O=C(/C=C/c1ccccc1)c1ccc(S(=O)(=O)NCCCNc2cncc3cc(Cl)ccc23)cc1`, for which the IC50 in data set [5] was above 50 µM; in data set [6], 1.67 µM. Consider `O=C1c2cccc(N3CCCCC3)c2C(=O)N1CCCCCCNc1ccnc2cc(Cl)ccc12`, for which, in data set [1], the IC50 at 24 h was determined as 204 µM. For the compound `O=C(/C=C/c1cc(F)ccc1F)c1ccc(S(=O)(=O)NCCCNc2cncc3cc(Cl)ccc23)cc1`, the IC50 in data set [5] amounted to 43.7 µM; in data set [6], 0.79 µM. For `O=C(/C=C/c1ccccc1Br)c1ccc(S(=O)(=O)NCCCNc2cncc3cc(Cl)ccc23)cc1`, the half-maximal inhibitory concentration (IC50) in data set [5] is 43.2 µM; in data set [6], 0.1 µM. For `COc1ccc(/C=C/C(=O)c2ccc(S(=O)(=O)NCCCNc3cncc4cc(Cl)ccc34)cc2)cc1` the same measures were 43.3 µM and 0.11 µM.

In the case of `CC(C)c1ccc(-c2cncn2CCNc2ccnc3cc(Cl)ccc23)cc1`, the 50% inhibitory concentration (IC50) in data set [2] worked out at 0.29 µM; in data set [3] it was 2.83 µM. On to `CN(c1ccnc2cc(C(F)(F)F)ccc12)C(Cc1ccccc1)CN1CCOCC1` (stereo unspecified), for which the IC50 in data set [4] was 3.89 µM. `Oc1ccc(-c2cncn2CCNc2ccnc3cc(Cl)ccc23)cc1`: the half-inhibitory concentration (IC50) in data set [2] is 5 µM; in data set [3], 3.79 µM. Take `CC(C)(C)c1cncn1CCNc1ccnc2cc(Cl)ccc12`: the half-maximal inhibitory concentration (IC50) was determined as 0.5 µM in data set [2] and 0.14 µM in data set [3]. In the case of `CN(C)c1ccc(-c2cncn2CCNc2ccnc3cc(Cl)ccc23)cc1`, the half-inhibitory concentration (IC50) in data set [2] came out at 1.09 µM; in data set [3], 5 µM. As to `O=C(/C=C/c1ccc(F)cc1)c1ccc(S(=O)(=O)NCCNc2cncc3cc(Cl)ccc23)cc1`, the IC50 in data set [5] worked out at 14.5 µM; in data set [6] it was 0.57 µM. The like results for `O=C(/C=C/c1ccc(F)c(F)c1)c1ccc(S(=O)(=O)NCCCNc2cncc3cc(Cl)ccc23)cc1` were, in that order, above 300 µM and 2.58 µM. For `O=C(/C=C/c1ccc(F)cc1)c1ccc(S(=O)(=O)NCCCNc2cncc3cc(Cl)ccc23)cc1` the same measures were 14.7 µM and 0.28 µM. Regarding `Clc1ccc2c(NCCn3cncc3C3CCCCC3)ccnc2c1`, the IC50 was 0.52 µM in data set [2] and 0.19 µM in data set [3]. The like results for `Clc1ccc2c(NCCn3cncc3-c3ccc4ccccc4n3)ccnc2c1` were, in that order, 1.33 µM and 5 µM. As to `O=C1c2cccc(N3CCOCC3)c2C(=O)N1CCCCCCNc1ccnc2cc(Cl)ccc12`, the concentration for half-maximal inhibition (IC50) at 24 h in data set [1] is 50.8 µM. As to `O=C(/C=C/c1ccc2c(c1)OCO2)c1ccc(S(=O)(=O)NCCCNc2cncc3cc(Cl)ccc23)cc1`, the results for the IC50 in data set [5] and in data set [6] were 34.1 µM and 0.69 µM, respectively.

With `N#Cc1ccc(-c2cncn2CCNc2ccnc3cc(Cl)ccc23)cc1`, the concentration for half-maximal inhibition (IC50) amounted to 0.73 µM in data set [2] and 5 µM in data set [3]. Take `O=C1c2ccc(N3CCCCC3)cc2C(=O)N1CCCCNc1ccnc2cc(Cl)ccc12`: the IC50 at 24 h in data set [1] was determined as 27 µM.

For `O=C(/C=C/c1ccco1)c1ccc(S(=O)(=O)NCCCNc2cncc3cc(Cl)ccc23)cc1`, the IC50 in data set [5] is above 50 µM; in data set [6] it was 4.45 µM.
